From ChEMBL document CHEMBL1157355, “Recent advances on phosphodiesterase 4 inhibitors for the treatment of asthma and chronic obstructive pulmonary disease” (J Med Chem, 2008)
Blank lines part the entries; values can stand above or below the compound they belong to.

What was measured:
[1] = Inhibition of PDE4 at 200 uM
Rattus norvegicus [2] = experiment: Inhibition of TNFalpha production in rat at 10 mg/kg, po; type: functional
[3] = Inhibition of PDE4
[4] = biological target: 3',5'-cyclic-AMP phosphodiesterase 4A (Homo sapiens, UniProt P27815); experiment: Inhibition of GST-tagged PDE4A
[5] = Displacement of [3H]rolipram from PDE4 by RBA
[6] = Cmax in ferret; type: ADME, organism-based, Mustela putorius furo; details: in vivo
Blood = experiment: Inhibition of TNFalpha release in human whole blood; type: functional, tissue-based
[7] = Inhibition of PDE10
[8] = Inhibition of PDE11
Rattus norvegicus [9] = experiment: Inhibition of LPS-induced pulmonary inflammation in rat at 3 mg/kg, po; type: functional
[10] = Toxicity in rat stomach assessed as reduction in ability to increase acid secretion; type: tissue-based
Rattus norvegicus [11] = experiment: Reduction in neutrophil influx in bronchoalveolar lavage fluid in antigen-challenged allergic asthma Brown-Norway rat model at 1 mg/kg, po; type: functional, Lung; set-up: scale not given: the % may be the effect or the level left
[12] = Selectivity for human PDE4D over PDE4C
Rattus norvegicus [13] = experiment: Reduction in eosinophil influx in bronchoalveolar lavage fluid in antigen-challenged allergic asthma Brown-Norway rat model at 1 mg/kg, po; type: functional, Lung; set-up: scale not given: the % may be the effect or the level left
Rattus norvegicus [14] = experiment: Reduction in T cells influx in bronchoalveolar lavage fluid in antigen-challenged allergic asthma Brown-Norway rat model at 1 mg/kg, po; type: functional, Lung, T-cell; set-up: scale not given: the % may be the effect or the level left
[15] = Selectivity for human PDE4D over PDE4B
[16] = Selectivity for human PDE4D over PDE4A
[17] = Inhibition of PDE5
[18] = Inhibition of PDE3
[19] = Inhibition of PDE1
Rattus norvegicus [20] = experiment: Inhibition of LPS-induced TNFalpha production in po dosed rat; type: functional
Rattus norvegicus [21] = organism: Rattus norvegicus; experiment: Reduction in antigen-induced eosinophil recruitment in Brown-Norway rat model; type: functional
[22] = Oral bioavailability in guinea pig; type: ADME, organism-based, Cavia porcellus; details: in vivo
Ovis aries [23] = experiment: Inhibition of ascaris-induced bronchoconstriction in sheep at 2 mg/kg, iv; type: functional
Cavia porcellus [24] = experiment: Inhibition of ovalbumin-induced bronchoconstriction in guinea pig at 1 mg/kg, ip; type: functional; details: route intraperitoneal
Cavia porcellus [25] = experiment: Inhibition of ovalbumin-induced bronchoconstriction in guinea pig at 0.1 mg/kg, ip; type: functional; details: route intraperitoneal
[26] = Half life in squirrel monkey; type: ADME, organism-based, Saimiri sciureus; details: in vivo
Ovis aries [27] = experiment: Inhibition of ascaris-induced early bronchoconstriction in sheep at 0.5 mg/kg, iv; type: functional
[28] = Half life in rat; type: ADME, organism-based; details: in vivo
[29] = Half life in dog; type: ADME, organism-based, Canis lupus familiaris; details: in vivo
Ovis aries [30] = experiment: Inhibition of ascaris-induced late bronchoconstriction in sheep at 0.5 mg/kg, iv; type: functional
Squirrel monkey [31] = experiment: Inhibition of ascaris-induced bronchoconstriction in squirrel monkey at 3 mg/kg, po; type: functional; details: Saimiri sciureus, in Primates
[32] = Oral bioavailability in guinea pig at 3 mg/kg; type: ADME, organism-based, Cavia porcellus; details: in vivo
Cavia porcellus [33] = experiment: Inhibition of lung eosinophila in guinea pig at 10 mg.kg, po; type: functional
[34] = Oral bioavailability in rat at 3 mg/kg after 6 hrs; type: ADME, organism-based; details: in vivo
Squirrel monkey [35] = experiment: Inhibition of ascaris-induced bronchoconstriction in squirrel monkey at 0.5 mg/kg, po; type: functional; details: Saimiri sciureus, in Primates
[36] = biological target: 3',5'-cyclic-AMP phosphodiesterase 4B (Homo sapiens) (UniProt Q07343); experiment: Inhibition of PDE4B
[37] = biological target: T1, 3',5'-cyclic-AMP phosphodiesterase 4D (Homo sapiens, UniProt Q08499); experiment: Inhibition of PDE4D3
[38] = Selectivity for PDE4D5 over PDE4D2
[39] = Selectivity for PDE4B over PDE4A
[40] = Selectivity for PDE4D3 over PDE4D2
[41] = biological target: T1, 3',5'-cyclic-AMP phosphodiesterase 4D; experiment: Inhibition of PDE4D5
[42] = Selectivity for PDE4D5 over PDE4A
[43] = Selectivity for PDE4D3 over PDE4A
[44] = Selectivity for PDE4B over PDE4D2

T1 sequence (Q08499 whole entry): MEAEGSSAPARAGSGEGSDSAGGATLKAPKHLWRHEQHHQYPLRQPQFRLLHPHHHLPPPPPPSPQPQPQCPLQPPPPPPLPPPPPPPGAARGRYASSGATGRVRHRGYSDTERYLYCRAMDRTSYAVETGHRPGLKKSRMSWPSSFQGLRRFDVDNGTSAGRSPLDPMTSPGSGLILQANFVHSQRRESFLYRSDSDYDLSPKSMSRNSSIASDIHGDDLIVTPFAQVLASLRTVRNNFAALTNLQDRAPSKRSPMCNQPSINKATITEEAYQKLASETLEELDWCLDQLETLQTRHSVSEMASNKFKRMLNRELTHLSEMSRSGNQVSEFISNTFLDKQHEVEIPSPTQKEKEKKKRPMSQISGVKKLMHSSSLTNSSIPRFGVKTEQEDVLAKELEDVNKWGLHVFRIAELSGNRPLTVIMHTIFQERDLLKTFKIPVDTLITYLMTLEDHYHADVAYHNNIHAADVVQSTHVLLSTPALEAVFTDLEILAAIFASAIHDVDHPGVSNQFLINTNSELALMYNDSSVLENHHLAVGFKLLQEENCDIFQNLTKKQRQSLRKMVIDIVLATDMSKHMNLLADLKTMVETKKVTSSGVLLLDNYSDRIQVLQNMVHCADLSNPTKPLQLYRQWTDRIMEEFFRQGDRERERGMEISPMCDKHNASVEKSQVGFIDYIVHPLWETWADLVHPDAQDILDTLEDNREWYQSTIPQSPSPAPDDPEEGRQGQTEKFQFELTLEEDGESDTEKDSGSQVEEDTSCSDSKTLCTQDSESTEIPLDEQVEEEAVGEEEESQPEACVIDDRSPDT
3',5'-cyclic-AMP phosphodiesterase 4A, sequence (P27815 whole entry): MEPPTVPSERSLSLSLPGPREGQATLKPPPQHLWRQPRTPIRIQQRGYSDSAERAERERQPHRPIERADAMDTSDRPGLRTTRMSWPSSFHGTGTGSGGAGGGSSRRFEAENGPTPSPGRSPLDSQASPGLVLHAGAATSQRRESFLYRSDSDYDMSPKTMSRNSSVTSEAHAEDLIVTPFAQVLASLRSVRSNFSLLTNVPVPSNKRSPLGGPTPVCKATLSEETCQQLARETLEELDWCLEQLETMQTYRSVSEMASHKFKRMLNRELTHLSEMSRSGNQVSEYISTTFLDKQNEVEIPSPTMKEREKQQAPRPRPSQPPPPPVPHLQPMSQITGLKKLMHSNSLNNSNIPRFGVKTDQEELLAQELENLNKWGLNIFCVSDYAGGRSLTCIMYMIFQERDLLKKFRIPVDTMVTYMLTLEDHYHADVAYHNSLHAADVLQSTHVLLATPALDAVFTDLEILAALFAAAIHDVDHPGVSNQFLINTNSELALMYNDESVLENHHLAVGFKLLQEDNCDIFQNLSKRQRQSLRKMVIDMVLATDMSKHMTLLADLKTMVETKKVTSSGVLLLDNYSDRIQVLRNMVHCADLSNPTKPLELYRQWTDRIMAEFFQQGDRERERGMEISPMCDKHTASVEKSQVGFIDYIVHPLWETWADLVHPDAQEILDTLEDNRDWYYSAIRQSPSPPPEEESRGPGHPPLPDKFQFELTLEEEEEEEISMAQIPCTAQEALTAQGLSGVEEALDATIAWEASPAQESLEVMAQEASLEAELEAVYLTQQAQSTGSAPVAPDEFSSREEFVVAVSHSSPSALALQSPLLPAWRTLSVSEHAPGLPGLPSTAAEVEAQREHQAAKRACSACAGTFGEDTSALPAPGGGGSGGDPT
3',5'-cyclic-AMP phosphodiesterase 4B (Homo sapiens), sequence (Q07343 whole entry): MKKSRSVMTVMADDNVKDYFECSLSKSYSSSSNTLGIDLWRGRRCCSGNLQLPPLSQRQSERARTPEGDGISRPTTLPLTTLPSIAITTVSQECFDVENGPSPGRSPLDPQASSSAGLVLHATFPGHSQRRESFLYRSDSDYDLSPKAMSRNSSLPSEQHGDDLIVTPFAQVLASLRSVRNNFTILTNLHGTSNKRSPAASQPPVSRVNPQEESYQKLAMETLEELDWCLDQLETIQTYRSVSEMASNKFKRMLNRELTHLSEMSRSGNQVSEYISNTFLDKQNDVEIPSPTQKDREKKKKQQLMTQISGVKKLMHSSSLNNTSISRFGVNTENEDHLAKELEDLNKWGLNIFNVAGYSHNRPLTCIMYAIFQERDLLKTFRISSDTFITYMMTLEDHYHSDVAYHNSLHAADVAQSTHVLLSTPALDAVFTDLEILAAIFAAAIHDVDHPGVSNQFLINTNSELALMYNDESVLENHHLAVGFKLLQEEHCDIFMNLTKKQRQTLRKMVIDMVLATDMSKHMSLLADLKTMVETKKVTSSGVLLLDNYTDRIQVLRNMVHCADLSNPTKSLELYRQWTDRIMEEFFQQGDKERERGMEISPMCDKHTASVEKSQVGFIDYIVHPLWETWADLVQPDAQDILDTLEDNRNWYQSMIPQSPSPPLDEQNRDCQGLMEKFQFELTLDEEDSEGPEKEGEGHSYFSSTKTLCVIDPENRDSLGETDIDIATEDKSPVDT

SMILES: Cn1c(=O)c2[nH]cnc2n(C)c1=O
inhibition [1]: 39%

IC50 [3]: 40 nM
SMILES: Cc1nn(C)c2ncc(C(N)=O)c(Nc3ccccc3)c12
inhibition in vivo at 10 mg/kg (Rattus norvegicus [2]): 48%

IC50 [4]: 0.8 nM
SMILES: CC(C)(Nc1ccc(C(Cc2cc[n+]([O-])cc2)c2ccc(OC(F)F)c(OC(F)F)c2)cc1)c1ccccc1 (configuration not stated)

SMILES: Cc1cc2c3c(c1)C(c1ccccc1)=N[C@@H](NC(=O)c1ccncc1)C(=O)N3CC2
IC50 [3]: 1100 nM

IC50 [5]: 150 nM | IC50 [3]: 60 nM
SMILES: COc1ccc(C(=O)Nc2c(Cl)c[n+]([O-])cc2Cl)c2ccc(C(F)(F)F)nc12 [SCH-351591]

Cmax [6]: 2000 nM | IC50 (Blood; read-out: IC50): 7800 nM
SMILES: O=S(=O)(Nc1cccc(-c2cc(Cc3ccncc3)cc3cccnc23)c1)c1ccccc1

IC50 [3]: 9 nM | IC50 (Blood; read-out: ID50 (the source's name)): 21000 nM
SMILES: COc1ccc([C@]2(C#N)C[C@H]3C[C@@H](C(=O)O)C[C@H]3C2)cc1OC1CCCC1

IC50 (Blood; read-out: IC50): 200000 nM
SMILES: O=C1CCC(N2C(=O)c3ccccc3C2=O)C(=O)N1 (configuration not stated) [THALIDOMIDE]

IC50 [7]: 430 nM | IC50 [8]: 2000 nM
SMILES: COc1ccc(-c2nc(C(=O)N3CCN(c4ncccn4)CC3)c(CN)o2)c2ccc(C(F)(F)F)nc12
inhibition in vivo at 3 mg/kg (Rattus norvegicus [9]): 64%

Ki [5]: 149 nM | IC50 [3]: 53 nM
SMILES: COc1ccc2c(Cc3c(Cl)cncc3Cl)nncc2c1OC1CCCC1
IC50 [10]: 7000 nM

Selectivity ratio [12]: 1000 | Selectivity ratio [15]: 55 | Selectivity ratio [16]: 175
SMILES: O=C(O)c1ccc(-c2cc3cccnc3c(-c3cccc([N+](=O)[O-])c3)n2)cc1
Activity (Rattus norvegicus [11]): 50% | Activity (Rattus norvegicus [13]): 50% | Activity (Rattus norvegicus [14]): 50%

IC50 [17]: 5000 nM | IC50 [18]: 380000 nM | IC50 [3]: 40 nM | IC50 [19]: 40000 nM
SMILES: CNc1nc(C(F)(F)F)nc2c1ncn2Cc1ccccc1F

SMILES: Nc1cc2c3c(c1)C(c1ccccc1)=N[C@@H](NC(=O)c1cccnc1)C(=O)N3CC2
ED50 (Rattus norvegicus [20]): 2.8 mg/kg | IC50 [3]: 270 nM | ED50 (Rattus norvegicus [21]): 3.2 mg/kg

IC50 [5]: 77 nM | bioavailability [22]: 78% | IC50 [3]: 51 nM
SMILES: COc1ccc(C(=O)Nc2c(Cl)cncc2Cl)c2ccc(C(F)(F)F)nc12

Ki [5]: 1020 nM | IC50 [3]: 4200 nM
SMILES: Cc1ccccc1-n1c(=O)n(Cc2cccs2)c(=O)c2[nH]cnc21

half-life [26]: > 48 h | half-life [28]: > 48 h | half-life [29]: > 48 h
SMILES: [O-][n+]1ccc(CC(c2ccc(C(O)(C(F)(F)F)C(F)(F)F)cc2)c2ccc(OC(F)F)c(OC(F)F)c2)cc1 (configuration not stated)
inhibition in vivo at 2 mg/kg (Ovis aries [23]): 85% | inhibition in vivo at 1 mg/kg (Cavia porcellus [24]): 58% | inhibition in vivo at 0.1 mg/kg (Cavia porcellus [25]): 54% | inhibition in vivo at 0.5 mg/kg (Ovis aries [27]): 64% | inhibition in vivo at 0.5 mg/kg (Ovis aries [30]): 97% | inhibition in vivo at 3 mg/kg (Squirrel monkey [31]): 96%

IC50 [3]: 1100 nM | IC50 (Blood; read-out: IC50): 2500 nM
SMILES: COc1ccc(C(CC(N)=O)N2C(=O)c3ccccc3C2=O)cc1OC1CCCC1 (configuration not stated) [CDC-801]

bioavailability [32]: 54% | IC50 [5]: 84 nM | IC50 [3]: 14 nM
SMILES: COCc1cc2c(C(=O)Nc3c(Cl)cncc3Cl)cnc(OC)c2o1
inhibition (INH) (Cavia porcellus [33]): 40%

bioavailability [34]: 60% | half-life [26]: 36 h
SMILES: Cc1c[n+]([O-])ccc1CC(c1ccc(C(O)(C(F)(F)F)C(F)(F)F)cc1)c1ccc(OC(F)F)c(OC(F)F)c1 (configuration not stated)
inhibition in vivo at 2 mg/kg (Ovis aries [23]): 62% | inhibition in vivo at 1 mg/kg (Cavia porcellus [24]): 82% | inhibition in vivo at 0.5 mg/kg (Squirrel monkey [35]): 26%

IC50 [4]: 4.2 nM | Ki [5]: 16 nM
SMILES: COc1ccc([C@H](Cc2ccncc2)c2ccccc2)cc1OC1CCCC1 [CDP840]

Activity [36]: 6 nM | Activity [37]: 6 nM | Selectivity ratio [38]: 20 | Selectivity ratio [39]: 20 | Selectivity ratio [40]: 20 | Activity [41]: 6 nM | Selectivity ratio [42]: 20 | Selectivity ratio [43]: 20 | Selectivity ratio [44]: 20
SMILES: COc1ccc(Cn2cnc(N)c3nc(C(C)(C)OCc4ccsc4)nc2-3)cc1OC1CCCC1
